Drawing on patent US9561190B2, “Nonwoven membrane as a drug delivery system” (priority 2012, dated 2017), this text covers IC50 for 1 compound.

pIC50: −log10 of the molar value.

What all share (assay type): cell-based
In one experiment the test system is LAN-1. Put plainly: MTS cell viability assay, soluble SN-38 on LAN-1 neuroblastoma cells. The note with it: LAN-1 cells, 4 hours exposure, viability 4 days later. On the procedure: (§1) To determine whether the antitumor activity of the drug was conserved after the manufacturing process of the membranes, the present inventors co-incubated the membranes with neuroblastoma cell lines. In a previous experiment, the present inventors determined the extent to which SN-38 inhibits neuroblastoma. Such experiment was performed by exposing LAN-1, SK-N-BE(2)c and SK-N-AS cell lines to a fresh solution of SN-38 in RPMI, prepared from a stock solution of SN-38, 1 mg/mL in DMSO. Briefly, cells were plated in 96 well plates, 3000 cells per well, in RPMI medium. 24 hours later, the cells were exposed to SN-38 (concentration range 10-0.000001 μM). After 4 hours, the drug was withdrawn and fresh medium was added. The viability of the cell culture was quantified 4 days later, by using the MTS cell viability assay (Promega).
(§2) Each dot represents the mean (±SD) of 3-5 wells.

The subject of the next experiment is SK-N-BE(2)c. Put plainly: MTS cell viability assay, soluble SN-38 on SK-N-BE(2)c neuroblastoma cells. The note with it: SK-N-BE(2)c cells, 4 hours exposure, viability 4 days later. On the procedure: as §1, §2
In general terms: Tetrazolium dyes change colour on reduction, which living cells bring about.

For a further experiment, the system named is SK-N-AS. Put plainly: MTS cell viability assay, soluble SN-38 on SK-N-AS neuroblastoma cells. The note with it: 4 hours exposure, viability 4 days later. On the procedure:
as §1, §2

`CCc1c2c(nc3ccc(O)cc13)-c1cc3c(c(=O)n1C2)COC(=O)[C@]3(O)CC` [SN-38, 7-ethyl-10-hydroxycamptothecin]: the negative-log IC50 (pIC50) (as a rule, the IC50 on a negative log10 scale, so that one unit is a factor of ten) with LAN-1 was 8.00; in the experiment on SK-N-BE(2)c, 7.34; with SK-N-AS, 6.72.
